According to ChEMBL document CHEMBL1201862, “PubChem BioAssay data set” (2004):
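How tested: cells in 96-well plates exposed to compound for 48 hours at five concentrations. GI50 = concentration required for 50% inhibition of growth.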 Activity calls are given as the source filed them. No stated cut-off is given here; in the data, active = GI50 up to about 1.1 µM and inactive = higher.

Assays:
Assay in all cases: NCI-60 cell line screen, 48 h
DMS-114 = tested on: DMS-114
DMS-273 = tested on: DMS-273
HOP-18 = tested on: HOP-18
KM-20L2 = tested on: KM-20L2
LXFL 529 = tested on: LXFL 529
RXF 631 = tested on: RXF 631
SNB-78 = tested on: SNB-78
XF498 = tested on: XF498
M19-MEL = tested on: M19-MEL

O=C1NC(=O)C2C(=O)NC(=O)C1C2c1c(Cl)cccc1Cl (stereo not drawn)
GI50 (DMS-114): > 38.4 µM (inactive)
GI50 (DMS-273): > 42.7 µM (inactive)
GI50 (HOP-18): > 100 µM (inactive)
GI50 (KM-20L2): > 49.5 µM (inactive)
GI50 (LXFL 529): > 100 µM (inactive)
GI50 (RXF 631): > 100 µM (inactive)
GI50 (SNB-78): > 100 µM (inactive)
GI50 (XF498): > 100 µM (inactive)

CCC(=O)C(C)C1=Nc2nnc(CCCCCCCc3nnc4n3C(=O)C(C(C)C(=O)CC)=N4)n2C1=O (stereo not drawn)
GI50 (DMS-114): > 100 µM (inactive)
GI50 (HOP-18): > 100 µM (inactive)
GI50 (KM-20L2): > 100 µM (inactive)
GI50 (LXFL 529): > 100 µM (inactive)
GI50 (M19-MEL): > 100 µM (inactive)
GI50 (XF498): > 100 µM (inactive)

COC1(OC)CC2C(=O)N(Cc3ccccc3)C1C(S(=O)(=O)c1ccccc1)C2S(=O)(=O)c1ccccc1 (stereo not drawn)
GI50 (DMS-114): 3.7 µM (inactive)
GI50 (DMS-273): 14.6 µM (inactive)
GI50 (HOP-18): 17.2 µM (inactive)
GI50 (KM-20L2): 17.4 µM (inactive)
GI50 (LXFL 529): 3.48 µM (inactive)
GI50 (M19-MEL): 11.1 µM (inactive)
GI50 (RXF 631): 16.7 µM (inactive)
GI50 (SNB-78): 18.5 µM (inactive)

NC1=C(O)c2cccc3cccc(c23)C1=O
GI50 (DMS-114): > 100 µM (inactive)
GI50 (DMS-273): > 100 µM (inactive)
GI50 (HOP-18): > 100 µM (inactive)
GI50 (KM-20L2): > 100 µM (inactive)
GI50 (LXFL 529): > 100 µM (inactive)
GI50 (M19-MEL): > 100 µM (inactive)
GI50 (RXF 631): > 100 µM (inactive)
GI50 (SNB-78): > 100 µM (inactive)

CC(=O)NNc1nc(C)c(C(=O)NNC(=O)C(=O)Nc2ccc(Cl)cc2Cl)s1
GI50 (DMS-114): 33.2 µM (inactive)
GI50 (KM-20L2): 40.1 µM (inactive)
GI50 (LXFL 529): 29.4 µM (inactive)
GI50 (M19-MEL): 38.4 µM (inactive)
GI50 (SNB-78): 36.6 µM (inactive)
GI50 (XF498): 30.1 µM (inactive)

O=C(Nc1ccccc1)Oc1ccccc1C1CCCCC1
GI50 (DMS-114): 12 µM (inactive)
GI50 (DMS-273): 15.2 µM (inactive)
GI50 (HOP-18): 29.3 µM (inactive)
GI50 (LXFL 529): 22.5 µM (inactive)
GI50 (M19-MEL): 16 µM (inactive)
GI50 (SNB-78): 17.7 µM (inactive)
GI50 (XF498): 19 µM (inactive)

Cc1c(C(=O)C/C(=N/NC(=O)c2ccccc2O)C(=O)Nc2ccccc2C(C)C)[n+]([O-])c2ccccc2[n+]1[O-]
GI50 (DMS-114): 23.1 µM (inactive)
GI50 (DMS-273): 31.8 µM (inactive)
GI50 (HOP-18): > 100 µM (inactive)
GI50 (KM-20L2): 39.7 µM (inactive)
GI50 (LXFL 529): 25.1 µM (inactive)
GI50 (M19-MEL): 46.5 µM (inactive)
GI50 (SNB-78): 84.7 µM (inactive)
GI50 (XF498): > 100 µM (inactive)

CCCCCCCCCCC(=O)CCCCCCC(=O)O
GI50 (DMS-114): 20.3 µM (inactive)
GI50 (DMS-273): 19.3 µM (inactive)
GI50 (HOP-18): 16.9 µM (inactive)
GI50 (LXFL 529): 18.2 µM (inactive)
GI50 (M19-MEL): 27 µM (inactive)
GI50 (RXF 631): 19.9 µM (inactive)
GI50 (SNB-78): 69.8 µM (inactive)
GI50 (XF498): 24.3 µM (inactive)

COc1cc([C@@H]2c3cc4c(cc3[C@@H](NC(=O)c3ccc(OC(C)=O)cc3)C3COC(=O)[C@@H]32)OCO4)cc(OC)c1O (stereo partly drawn)
GI50 (DMS-114): 1.2 µM (inactive)
GI50 (DMS-273): 0.359 µM (active)
GI50 (HOP-18): > 100 µM (inactive)
GI50 (KM-20L2): 2.13 µM (inactive)
GI50 (LXFL 529): 9.62 µM (inactive)
GI50 (M19-MEL): 8.71 µM (inactive)
GI50 (RXF 631): 1.76 µM (inactive)
GI50 (SNB-78): 19.8 µM (inactive)
GI50 (XF498): 0.813 µM (active)

Cc1c2ccnc(O)c2cc2c(=O)c3cnccc3[nH]c12
GI50 (DMS-114): > 100 µM (inactive)
GI50 (DMS-273): > 100 µM (inactive)
GI50 (HOP-18): > 100 µM (inactive)
GI50 (KM-20L2): > 100 µM (inactive)
GI50 (LXFL 529): > 100 µM (inactive)
GI50 (M19-MEL): > 100 µM (inactive)
GI50 (SNB-78): > 100 µM (inactive)

O=C1C(CN2CCCCC2)CCCC1CN1CCCCC1 (stereo not drawn)
GI50 (DMS-273): 43.2 µM (inactive)
GI50 (HOP-18): 17.2 µM (inactive)
GI50 (KM-20L2): 14.4 µM (inactive)
GI50 (LXFL 529): 15 µM (inactive)
GI50 (SNB-78): 21.4 µM (inactive)
GI50 (XF498): 21.2 µM (inactive)

CCC1CNC(=O)CC1CC(=O)OC (stereo not drawn)
GI50 (DMS-114): > 100 µM (inactive)
GI50 (KM-20L2): > 100 µM (inactive)
GI50 (SNB-78): > 100 µM (inactive)

Cc1c(/C=C2\CC/C(=C\c3[nH]c(C(=O)OC(C)(C)C)c(C)c3C)C2=O)[nH]c(C(=O)OC(C)(C)C)c1C
GI50 (DMS-114): > 100 µM (inactive)
GI50 (DMS-273): > 100 µM (inactive)
GI50 (HOP-18): > 100 µM (inactive)
GI50 (KM-20L2): > 100 µM (inactive)
GI50 (LXFL 529): > 100 µM (inactive)
GI50 (M19-MEL): > 100 µM (inactive)
GI50 (SNB-78): > 100 µM (inactive)
GI50 (XF498): > 100 µM (inactive)

COc1cc2cc3c4cc(OC)c(OC)cc4cc[n+]3c(C)c2cc1OC.O=C([O-])CS(=O)(=O)O
GI50 (DMS-114): 3.34 µM (inactive)
GI50 (DMS-273): 63.8 µM (inactive)
GI50 (HOP-18): > 100 µM (inactive)
GI50 (KM-20L2): > 100 µM (inactive)
GI50 (LXFL 529): 10.8 µM (inactive)
GI50 (M19-MEL): 69 µM (inactive)
GI50 (SNB-78): 48.4 µM (inactive)
GI50 (XF498): 36.4 µM (inactive)

COc1cc(CO)cc2c1[nH]c1ccccc12 [KOENOLINE]
GI50 (DMS-114): > 25 µM (inactive)
GI50 (DMS-273): > 25 µM (inactive)
GI50 (HOP-18): > 25 µM (inactive)
GI50 (KM-20L2): > 25 µM (inactive)
GI50 (LXFL 529): > 25 µM (inactive)
GI50 (M19-MEL): > 25 µM (inactive)
GI50 (SNB-78): > 25 µM (inactive)
GI50 (XF498): > 25 µM (inactive)
